≈ marks a conversion by molar mass, not a printed value. Where two headings read alike, the source gives them in different places. Values belong to the compound of their own block, whether it stands above or below them.
Columns and labels:
[1] = test system: Candida spp.; experiment: Broth microdilution MIC (Example 11); type: cell-based, C. parapsilosis, C. albicans, C. glabrata, C. tropicalis; settings: read-out: MIC
[2] = test system: Candida krusei; experiment: Antifungal broth microdilution (Example 13); type: cell-based; settings: C. krusei ATCC 6258, comparators, single value
[3] = test system: Aspergillus spp.; experiment: Antifungal broth microdilution (Example 13); type: cell-based, A. niger, A. terreus, A. fumigatus, A. flavus
[4] = test system: fungal pathogens; experiment: Antifungal activity, NIH/NIAID sponsored study; type: cell-based; settings: 50% endpoint
[5] = test system: C. parapsilosis ATCC 22019; experiment: Antifungal broth microdilution (Example 13), QC organism; type: cell-based, Candida parapsilosis; settings: 24 hr, comparators, single value
[6] = test system: Candida spp.; settings: C. parapsilosis MMX 2323 (ATCC 22019), cited from earlier work
[7] = test system: Candida krusei; settings: C. krusei ATCC 6258, CLSI established QC range, cited from earlier work
[8] = test system: C. parapsilosis ATCC 22019; settings: C. parapsilosis ATCC 22019, CLSI established QC range, cited from earlier work
[9] = test system: E. coli ATCC 25922; experiment: MIC control strain; settings: QC organism, Example 13
[10] = test system: S. aureus ATCC 29213; experiment: MIC control strain; settings: QC organism, Example 13
[11] = test system: vancomycin-intermediate Staphylococcus aureus (VISA); experiment: Broth microdilution MIC (Example 12); type: cell-based
[12] = test system: Gram-positive aerobic bacteria (S. aureus, MRSA, CA-MRSA); experiment: MIC90 against 150 clinical isolates of Gram-positive aerobic bacteria; type: cell-based; settings: S. aureus (50 isolates)
[13] = test system: S. aureus ATCC 29213; settings: CLSI established QC range; cited from earlier work
[14] = test system: S. aureus ATCC 29213; experiment: Broth microdilution MIC (Example 12), ATCC QC organism; settings: ATCC QC organism (Table 102)

Compound: OC(Cn1cncn1)(Cn1cncn1)c1ccc(F)cc1F [Fluconazole]
MIC ([1]; 24 h, C. albicans MMX 7039, Sensitive, incubation 24 hr): 0.5 µg/mL (≈ 1.63 µM)
MIC ([1]; 24 h, C. glabrata MMX 7318, FLU^R, incubation 24 hr): > 64 µg/mL
MIC ([1]; 24 h, C. parapsilosis MMX 2323 (ATCC 22019), QC, incubation 24 hr): 2 µg/mL (≈ 6.53 µM)
MIC ([1]; 24 h, C. parapsilosis MMX 7370, FLU^R, incubation 24 hr): 32 µg/mL (≈ 104 µM)
MIC ([1]; 24 h, C. tropicalis MMX 7247, FLU^R, incubation 24 hr): 64 µg/mL (≈ 209 µM)
MIC ([1]; 24 h, C. tropicalis MMX 7360, FLU^R, incubation 24 hr): 64 µg/mL (≈ 209 µM)
MIC ([1]; 48 h, C. albicans MMX 7039, Sensitive, incubation 48 hr): 0.5 µg/mL (≈ 1.63 µM)
MIC ([1]; 48 h, C. albicans MMX 7055, Sensitive, incubation 48 hr): 0.5 µg/mL (≈ 1.63 µM)
MIC ([1]; 48 h, C. glabrata MMX 7318, FLU^R, incubation 48 hr): > 64 µg/mL
MIC ([1]; 48 h, C. glabrata miX 7086, FLU^R, incubation 48 hr): 64 µg/mL (≈ 209 µM)
MIC ([1]; 48 h, C. parapsilosis MMX 2323 (ATCC 22019), QC, incubation 48 hr): 2 µg/mL (≈ 6.53 µM)
MIC ([1]; 48 h, C. parapsilosis MMX 7555, FLU^R, incubation 48 hr): 64 µg/mL (≈ 209 µM)
MIC ([1]; 48 h, C. tropicalis MMX 7247, FLU^R, incubation 48 hr): > 64 µg/mL
MIC ([1]; 48 h, C. tropicalis MMX 7248, FLU^R, incubation 48 hr): > 64 µg/mL
MIC ([1]; 48 h, C. tropicalis MMX 7360, FLU^R, incubation 48 hr): > 64 µg/mL
MIC 24 hr ([2]; 24 hr): 16 µg/mL (≈ 52.2 µM)
MIC 48 hr ([2]; 48 hr): 32 µg/mL (≈ 104 µM)
MIC 24 hr ([3]; A. flavus ATCC 204304): > 64 µg/mL
MIC 48 hr ([3]; A. flavus ATCC 204304): > 64 µg/mL
MIC 24 hr ([3]; A. fumigatus ATCC MYA-3626): > 64 µg/mL
MIC 48 hr ([3]; A. fumigatus ATCC MYA-3626): > 64 µg/mL
MIC50 ([4]; Candida albicans, read-out: Antifungal activity, MIC 50%, C. albicans CA1): ≤ 0.125 µg/mL
MIC50 ([4]; Candida albicans, read-out: Antifungal activity, MIC 50%, C. albicans CA2): ≤ 0.125 µg/mL
MIC50 ([4]; Candida albicans, read-out: Antifungal activity, MIC 50%, C. albicans CA3): > 64 µg/mL
MIC50 ([4]; Candidozyma auris, read-out: Antifungal activity, MIC 50%, C. auris Cau1): > 64 µg/mL
MIC50 ([4]; Candidozyma auris, read-out: Antifungal activity, MIC 50%, C. auris Cau2): 2 µg/mL (≈ 6.53 µM)
MIC50 ([4]; Candidozyma auris, read-out: Antifungal activity, MIC 50%, C. auris Cau3): > 64 µg/mL
MIC50 ([4]; Cryptococcus neoformans, read-out: Antifungal activity, MIC 50%, C. neoformans CN1): 64 µg/mL (≈ 209 µM)
MIC50 ([4]; Cryptococcus neoformans, read-out: Antifungal activity, MIC 50%, C. neoformans CN2): 64 µg/mL (≈ 209 µM)
MIC50 ([4]; Cryptococcus neoformans, read-out: Antifungal activity, MIC 50%, C. neoformans CN3): 2 µg/mL (≈ 6.53 µM)
MIC50 ([4]; Lodderomyces parapsilosis, ATCC22019, read-out: Antifungal activity, MIC 50%, C. parapsilosis ATCC22019): 1 µg/mL (≈ 3.27 µM)
MIC50 ([4]; Pichia kudriavzevii, ATCC6258, read-out: Antifungal activity, MIC 50%, C. krusei ATCC6258): 16 µg/mL (≈ 52.2 µM)
MIC 24 hr [5]: 1 µg/mL (≈ 3.27 µM)
CLSI QC range of MIC ([6]; 24 hr): 0.5 to 4 µg/mL
CLSI QC range of MIC ([6]; 48 hr): 1 to 4 µg/mL
QC Range 24 hr ([7]; 24 hr): 8-64
QC Range 48 hr ([7]; 48 hr): 16-128
QC Range 24 hr ([8]; 24 hr): 0.5-4
QC Range 48 hr ([8]; 48 hr): 1-4
MIC 24 hr [9]: >64
MIC 24 hr [10]: >64

Compound: CN[C@H](CC(C)C)C(=O)N[C@H]1C(=O)N[C@@H](CC(N)=O)C(=O)N[C@H]2C(=O)N[C@H]3C(=O)N[C@H](C(=O)N[C@H](C(=O)O)c4cc(O)cc(O)c4-c4cc3ccc4O)[C@H](O)c3ccc(c(Cl)c3)Oc3cc2cc(c3O[C@@H]2O[C@H](CO)[C@@H](O)[C@H](O)[C@H]2O[C@H]2C[C@](C)(N)[C@H](O)[C@H](C)O2)Oc2ccc(cc2Cl)[C@H]1O [VAN]
MIC ([11]; S. aureus NRS 1 (hVISA)): 4 µg/mL (≈ 2.76 µM)
MIC ([11]; S. aureus NRS 2): 0.5 µg/mL (≈ 0.345 µM)
MIC ([11]; S. aureus NRS 3): 8 µg/mL (≈ 5.52 µM)
MIC ([11]; S. aureus NRS 4): 4 µg/mL (≈ 2.76 µM)
MIC ([11]; S. aureus NRS 13): 2 µg/mL (≈ 1.38 µM)
MIC ([11]; S. aureus NRS 18): 4 µg/mL (≈ 2.76 µM)
MIC ([11]; S. aureus NRS 22): 4 µg/mL (≈ 2.76 µM)
MIC ([11]; S. aureus NRS 24 (hVISA)): 2 µg/mL (≈ 1.38 µM)
MIC ([11]; S. aureus NRS 27): 2 µg/mL (≈ 1.38 µM)
MIC90 ([12]; CA-MRSA): 1 µg/mL (≈ 0.69 µM)
MIC90 ([12]; MRSA): 2 µg/mL (≈ 1.38 µM)
MIC90 ([12]; MSSA): 1 µg/mL (≈ 0.69 µM)
QC range of MIC [13]: (0.5-2) μg/mL
MIC [14]: 0.5 µg/mL (≈ 0.345 µM)

Compound: CCC[C@@H]1C[C@@H](C(=O)N[C@@H]([C@H]2O[C@H](SC)[C@H](O)[C@@H](O)[C@H]2O)[C@H](C)Cl)N(C)C1 [CLI]
MIC ([11]; S. aureus NRS 1 (hVISA)): >8 µg/mL
MIC ([11]; S. aureus NRS 2): >8 µg/mL
MIC ([11]; S. aureus NRS 3): >8 µg/mL
MIC ([11]; S. aureus NRS 4): >8 µg/mL
MIC ([11]; S. aureus NRS 13): 0.06 µg/mL (≈ 0.141 µM)
MIC ([11]; S. aureus NRS 18): >8 µg/mL
MIC ([11]; S. aureus NRS 22): >8 µg/mL
MIC ([11]; S. aureus NRS 24 (hVISA)): >8 µg/mL
MIC ([11]; S. aureus NRS 27): >8 µg/mL
QC range of MIC [13]: (0.06-0.25) μg/mL
MIC [14]: 0.25 µg/mL (≈ 0.588 µM)

MIC ([11]; S. aureus NRS 1 (hVISA)): 1 µg/mL (≈ 2.96 µM)
MIC ([11]; S. aureus NRS 2): 4 µg/mL (≈ 11.9 µM)
MIC ([11]; S. aureus NRS 3): 1 µg/mL (≈ 2.96 µM)
MIC ([11]; S. aureus NRS 4): 1 µg/mL (≈ 2.96 µM)
MIC ([11]; S. aureus NRS 13): 2 µg/mL (≈ 5.93 µM)
MIC ([11]; S. aureus NRS 18): 1 µg/mL (≈ 2.96 µM)
MIC ([11]; S. aureus NRS 22): 1 µg/mL (≈ 2.96 µM)
MIC ([11]; S. aureus NRS 24 (hVISA)): 2 µg/mL (≈ 5.93 µM)
MIC ([11]; S. aureus NRS 27): 2 µg/mL (≈ 5.93 µM)
MIC90 ([12]; CA-MRSA): 4 µg/mL (≈ 11.9 µM)
MIC90 ([12]; MRSA): 4 µg/mL (≈ 11.9 µM)
MIC90 ([12]; MSSA): 4 µg/mL (≈ 11.9 µM)
MIC [14]: 4 µg/mL (≈ 11.9 µM)
Compound: CC(=O)NC[C@H]1CN(c2ccc(N3CCOCC3)c(F)c2)C(=O)O1 [LZD]
QC range of MIC [13]: (1-4) μg/mL
